Data on one compound can be found in PMC6576746, “Rational discovery of dual-indication multi-target PDE/Kinase inhibitor for precision anti-cancer therapy using structural systems pharmacology” (PLoS Computational Biology, 2019).

Test in all cases: biochemical
What all share (design): DiscoverX KinomeScan competition binding assay across human kinases; per cent of control at 10 and 100 uM

Assay [1] has as its target FGR (Homo sapiens, UniProt P09769). The note with it: competition binding, % of control. In a few lines:
(§1)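 KinomeScan competition binding was run across a human kinase panel at 10 μM and 100 μM levosimendan. Results are %control = (test − positive control)/(negative control − positive control) × 100.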

For assay [2], the target named is T1, FAK (Homo sapiens, UniProt Q05397).
T1 construct: gene PTK2
The note with it: competition binding, % of control; read-out: Percent Control (100 uM Levosimendan). The method in brief: as §1

Assay [3] addresses TNK1 (Homo sapiens, UniProt Q13470). The note with it: competition binding, % of control; read-out: Percent Control (100 uM Levosimendan). The method in brief:
as §1

Assay [4] deals with WNK4 (Homo sapiens, UniProt Q96J92). The note with it: competition binding, % of control; read-out: Percent Control (100 uM Levosimendan). The method in brief: as §1
Sequence of WNK4 (Q96J92 whole entry): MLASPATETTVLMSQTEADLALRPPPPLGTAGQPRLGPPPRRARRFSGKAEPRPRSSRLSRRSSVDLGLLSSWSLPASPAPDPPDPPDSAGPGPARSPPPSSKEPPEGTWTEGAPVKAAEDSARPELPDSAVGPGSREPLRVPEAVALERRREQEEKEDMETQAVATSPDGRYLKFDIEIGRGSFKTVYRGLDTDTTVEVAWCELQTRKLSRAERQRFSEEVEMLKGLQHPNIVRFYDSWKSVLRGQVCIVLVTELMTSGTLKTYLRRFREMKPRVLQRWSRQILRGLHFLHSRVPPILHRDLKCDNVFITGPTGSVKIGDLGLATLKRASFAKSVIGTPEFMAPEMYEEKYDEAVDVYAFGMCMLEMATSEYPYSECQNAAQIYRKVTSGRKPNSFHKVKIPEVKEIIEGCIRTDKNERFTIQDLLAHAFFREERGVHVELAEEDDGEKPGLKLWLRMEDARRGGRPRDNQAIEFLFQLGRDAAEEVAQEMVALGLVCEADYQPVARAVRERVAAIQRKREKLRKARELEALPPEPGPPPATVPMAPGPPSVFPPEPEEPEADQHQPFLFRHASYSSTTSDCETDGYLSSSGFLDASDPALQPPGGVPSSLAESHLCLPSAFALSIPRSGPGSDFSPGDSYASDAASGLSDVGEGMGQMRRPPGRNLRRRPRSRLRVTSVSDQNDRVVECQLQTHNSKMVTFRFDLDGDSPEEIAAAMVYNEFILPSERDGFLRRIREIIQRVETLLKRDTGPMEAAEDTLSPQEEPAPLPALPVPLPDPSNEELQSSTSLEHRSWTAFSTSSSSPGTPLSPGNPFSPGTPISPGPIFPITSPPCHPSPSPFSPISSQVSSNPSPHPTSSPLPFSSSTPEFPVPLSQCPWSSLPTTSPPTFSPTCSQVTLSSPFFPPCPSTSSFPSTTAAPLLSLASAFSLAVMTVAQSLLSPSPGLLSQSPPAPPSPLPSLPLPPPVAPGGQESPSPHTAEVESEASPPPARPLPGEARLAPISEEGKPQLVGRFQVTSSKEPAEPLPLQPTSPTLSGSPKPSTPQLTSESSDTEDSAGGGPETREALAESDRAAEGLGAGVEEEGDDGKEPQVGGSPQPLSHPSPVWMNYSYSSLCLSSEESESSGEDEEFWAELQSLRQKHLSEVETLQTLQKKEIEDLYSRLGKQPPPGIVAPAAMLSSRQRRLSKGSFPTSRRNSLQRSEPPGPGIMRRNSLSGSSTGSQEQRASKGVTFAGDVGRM
The target of assay [5] is T2, CAMK1B (Homo sapiens, UniProt Q6P2M8).
T2 construct: gene PNCK
The note with it: competition binding, % of control; read-out: Percent Control (100 uM Levosimendan). The method in brief:
as §1

Assay [6] addresses SYK (Homo sapiens, UniProt P43405). As to conditions: competition binding, % of control; read-out: Percent Control (100 uM Levosimendan). The method in brief:
as §1

Assay [7] deals with T3, DLK (Homo sapiens, UniProt Q12852).
T3 construct: gene MAP3K12
T3 sequence (Q12852 whole entry): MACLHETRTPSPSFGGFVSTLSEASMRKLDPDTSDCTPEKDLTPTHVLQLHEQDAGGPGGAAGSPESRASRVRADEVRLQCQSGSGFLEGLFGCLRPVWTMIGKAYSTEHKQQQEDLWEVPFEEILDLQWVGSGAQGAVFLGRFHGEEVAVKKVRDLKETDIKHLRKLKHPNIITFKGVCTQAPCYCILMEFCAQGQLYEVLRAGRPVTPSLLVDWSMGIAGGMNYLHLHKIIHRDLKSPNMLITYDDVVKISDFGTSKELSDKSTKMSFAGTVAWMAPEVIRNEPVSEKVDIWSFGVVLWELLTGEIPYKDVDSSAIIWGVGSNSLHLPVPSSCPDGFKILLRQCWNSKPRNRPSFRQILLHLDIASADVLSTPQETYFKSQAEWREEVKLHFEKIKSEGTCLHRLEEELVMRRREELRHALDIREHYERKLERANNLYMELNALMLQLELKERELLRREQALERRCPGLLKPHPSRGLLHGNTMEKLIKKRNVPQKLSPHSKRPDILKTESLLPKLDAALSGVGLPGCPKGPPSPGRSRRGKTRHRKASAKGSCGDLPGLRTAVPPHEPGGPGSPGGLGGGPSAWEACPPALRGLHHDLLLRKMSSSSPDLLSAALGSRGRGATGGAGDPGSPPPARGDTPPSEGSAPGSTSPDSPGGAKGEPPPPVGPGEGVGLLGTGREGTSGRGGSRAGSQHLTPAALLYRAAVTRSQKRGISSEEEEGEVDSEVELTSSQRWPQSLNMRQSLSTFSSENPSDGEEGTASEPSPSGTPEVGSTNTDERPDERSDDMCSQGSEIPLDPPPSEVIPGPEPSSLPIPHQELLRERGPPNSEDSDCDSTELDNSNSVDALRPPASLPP
As to conditions: competition binding, % of control; read-out: Percent Control (100 uM Levosimendan). In a few lines: as §1

Assay [8] concerns the target PIK3CB (Homo sapiens, UniProt P42338). As to conditions: competition binding, % of control; read-out: Percent Control (100 uM Levosimendan). The method in brief: as §1
The target of assay [9] is MKNK2 (Homo sapiens, UniProt Q9HBH9). The note with it: competition binding, % of control. In a few lines: as §1
Sequence of MKNK2 (Q9HBH9 whole entry): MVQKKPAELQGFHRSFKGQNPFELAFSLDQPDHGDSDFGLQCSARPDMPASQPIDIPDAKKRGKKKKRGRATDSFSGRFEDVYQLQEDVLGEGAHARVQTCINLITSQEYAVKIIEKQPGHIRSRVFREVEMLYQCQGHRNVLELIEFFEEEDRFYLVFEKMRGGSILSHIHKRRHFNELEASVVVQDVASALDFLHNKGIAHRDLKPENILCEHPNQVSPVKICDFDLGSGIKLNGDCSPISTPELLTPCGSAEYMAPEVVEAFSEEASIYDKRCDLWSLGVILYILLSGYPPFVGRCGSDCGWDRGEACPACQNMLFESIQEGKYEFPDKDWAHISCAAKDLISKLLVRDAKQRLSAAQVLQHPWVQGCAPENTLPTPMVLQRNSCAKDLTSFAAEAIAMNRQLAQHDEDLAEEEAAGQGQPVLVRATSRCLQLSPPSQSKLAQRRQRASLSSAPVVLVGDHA
Assay [10] concerns the target SRPK3 (Homo sapiens, UniProt Q9UPE1). The note with it: competition binding, % of control; read-out: Percent Control (100 uM Levosimendan). In a few lines:
as §1

Assay [11] addresses T4, LOK (Homo sapiens, UniProt O94804).
T4 construct: gene STK10
The note with it: competition binding, % of control; read-out: Percent Control (100 uM Levosimendan). In a few lines:
as §1

Assay [12] has as its target PRKCI (Homo sapiens, UniProt P41743). As to conditions: competition binding, % of control; read-out: Percent Control (100 uM Levosimendan). In a few lines: as §1
Assay [13] concerns the target CDK4 (Homo sapiens, UniProt P11802). The note with it: competition binding, % of control; read-out: Percent Control (100 uM Levosimendan). In a few lines: as §1
Assay [14] deals with LIMK1 (Homo sapiens, UniProt P53667). The note with it: competition binding, % of control; read-out: Percent Control (100 uM Levosimendan). The method in brief:
as §1

Assay [15] concerns the target MAP3K4 (Homo sapiens, UniProt Q9Y6R4). The note with it: competition binding, % of control; read-out: Percent Control (100 uM Levosimendan). In a few lines:
as §1

Assay [16] deals with T5, ABL1(F317L)-nonphosphorylated (Homo sapiens, UniProt P00519, F317L).
T5 construct: nonphosphorylated
T5 sequence (P00519 whole entry F317L): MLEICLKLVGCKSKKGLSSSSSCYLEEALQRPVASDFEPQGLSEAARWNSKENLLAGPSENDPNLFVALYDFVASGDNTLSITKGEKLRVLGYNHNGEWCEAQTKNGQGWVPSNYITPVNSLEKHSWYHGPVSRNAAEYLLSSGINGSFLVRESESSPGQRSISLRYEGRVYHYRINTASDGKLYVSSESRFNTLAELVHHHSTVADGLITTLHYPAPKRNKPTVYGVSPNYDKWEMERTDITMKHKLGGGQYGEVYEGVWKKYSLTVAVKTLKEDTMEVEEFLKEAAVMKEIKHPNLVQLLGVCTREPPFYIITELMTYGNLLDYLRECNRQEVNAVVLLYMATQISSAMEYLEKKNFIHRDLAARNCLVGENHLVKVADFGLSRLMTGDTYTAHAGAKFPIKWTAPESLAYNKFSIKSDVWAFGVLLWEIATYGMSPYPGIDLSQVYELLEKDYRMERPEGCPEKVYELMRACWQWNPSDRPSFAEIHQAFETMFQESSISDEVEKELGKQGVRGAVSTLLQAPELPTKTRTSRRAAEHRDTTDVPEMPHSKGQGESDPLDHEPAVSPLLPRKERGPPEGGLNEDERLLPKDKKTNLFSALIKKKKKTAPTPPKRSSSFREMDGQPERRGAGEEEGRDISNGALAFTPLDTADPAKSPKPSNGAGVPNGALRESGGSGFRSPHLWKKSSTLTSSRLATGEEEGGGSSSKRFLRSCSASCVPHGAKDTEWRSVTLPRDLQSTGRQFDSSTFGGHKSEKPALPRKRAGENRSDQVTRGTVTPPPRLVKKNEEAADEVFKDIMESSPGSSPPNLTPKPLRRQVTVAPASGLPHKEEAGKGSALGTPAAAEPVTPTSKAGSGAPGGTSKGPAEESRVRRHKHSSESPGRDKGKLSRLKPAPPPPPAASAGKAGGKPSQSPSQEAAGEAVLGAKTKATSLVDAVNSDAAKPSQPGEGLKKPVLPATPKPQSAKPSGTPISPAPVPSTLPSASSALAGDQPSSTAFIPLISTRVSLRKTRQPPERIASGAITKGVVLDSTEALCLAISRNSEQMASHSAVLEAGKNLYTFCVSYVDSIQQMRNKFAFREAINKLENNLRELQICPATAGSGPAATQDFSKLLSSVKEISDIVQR
The note with it: competition binding, % of control; read-out: Percent Control (100 uM Levosimendan). The method in brief: as §1

In assay [17] the target is T6, ABL1(E255K)-phosphorylated (Homo sapiens, UniProt P00519, E255K).
T6 construct: phosphorylated
T6 sequence (P00519 whole entry E255K): as the sequence (P00519 whole entry F317L) above, with E255K, L317F counted along it
As to conditions: competition binding, % of control. In a few lines: as §1

Assay [18] has as its target T7, VPS34 (Homo sapiens, UniProt Q8NEB9).
T7 construct: gene PIK3C3
As to conditions: competition binding, % of control; read-out: Percent Control (100 uM Levosimendan). The method in brief:
as §1

Assay [19] concerns the target PAK6 (Homo sapiens, UniProt Q9NQU5). As to conditions: competition binding, % of control; read-out: Percent Control (100 uM Levosimendan). In a few lines: as §1
The mark [20] stands for this setting: read-out: Percent Control (10 uM Levosimendan).
Setting [21] is: read-out: Percent Control (100 uM Levosimendan).

Sequence of FGR (P09769 whole entry): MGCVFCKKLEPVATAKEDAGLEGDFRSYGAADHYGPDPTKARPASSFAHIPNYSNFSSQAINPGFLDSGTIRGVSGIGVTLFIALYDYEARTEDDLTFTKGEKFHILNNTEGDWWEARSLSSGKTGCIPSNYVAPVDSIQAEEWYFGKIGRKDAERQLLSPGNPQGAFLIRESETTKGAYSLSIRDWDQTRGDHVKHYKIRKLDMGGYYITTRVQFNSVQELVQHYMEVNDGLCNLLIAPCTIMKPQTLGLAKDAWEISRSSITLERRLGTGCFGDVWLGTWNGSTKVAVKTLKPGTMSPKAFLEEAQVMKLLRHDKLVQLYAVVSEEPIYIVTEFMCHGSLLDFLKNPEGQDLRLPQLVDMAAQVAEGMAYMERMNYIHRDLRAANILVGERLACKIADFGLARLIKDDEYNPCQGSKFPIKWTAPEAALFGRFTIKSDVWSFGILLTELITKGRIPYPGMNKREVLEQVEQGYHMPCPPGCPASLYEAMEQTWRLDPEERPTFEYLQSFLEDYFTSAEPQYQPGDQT
Sequence of PRKCI (P41743 whole entry): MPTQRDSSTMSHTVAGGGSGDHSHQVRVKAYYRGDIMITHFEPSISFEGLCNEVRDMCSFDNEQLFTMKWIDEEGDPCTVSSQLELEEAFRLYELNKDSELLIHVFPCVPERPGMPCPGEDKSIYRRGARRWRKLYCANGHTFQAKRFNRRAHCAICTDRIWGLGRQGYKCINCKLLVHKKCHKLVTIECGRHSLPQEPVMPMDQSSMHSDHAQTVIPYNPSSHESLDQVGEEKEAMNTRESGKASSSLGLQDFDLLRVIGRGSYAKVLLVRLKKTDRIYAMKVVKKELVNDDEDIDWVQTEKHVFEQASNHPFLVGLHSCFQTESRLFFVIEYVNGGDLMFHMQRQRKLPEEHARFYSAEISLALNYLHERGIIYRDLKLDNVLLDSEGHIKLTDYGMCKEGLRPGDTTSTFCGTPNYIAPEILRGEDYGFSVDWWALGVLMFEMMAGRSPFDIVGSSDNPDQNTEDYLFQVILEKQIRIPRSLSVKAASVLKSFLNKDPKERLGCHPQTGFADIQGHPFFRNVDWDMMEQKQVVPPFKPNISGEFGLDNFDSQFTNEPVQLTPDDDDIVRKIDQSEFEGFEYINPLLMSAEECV

On to `C[C@@H]1CC(=O)NN=C1c1ccc(NN=C(C#N)C#N)cc1` [levosimendan], for which the remaining binding at 10 µM in [1] (setting [20]) was 100%; in [9] (setting [20]), 59%; in assay [17] (setting [20]) it was 97%. For the same compound, the remaining binding at 100 µM in assay [1] (setting [21]) is 49%; in assay [2], 89%; in assay [3], 100%; in assay [4], 95%; in [5], 100%; in [6] it was 78%. Besides, the remaining binding at 100 µM in [7] was 62%; in assay [8], 100%; in [9] (setting [21]), 7.5%; in assay [10], 63%; in [11] it was 70%; in assay [12] it was 58%. The remaining binding at 100 µM is 100% in assay [13]; 73% in assay [14]; 58% in assay [15]; 100% in assay [16]; 34% in [17] (setting [21]); 100% in assay [18]. Also, the remaining binding at 100 µM in [19] was 70%.
